Data reported in US20090270419A1, “COMBINATIONS OF CLASS-I SPECIFIC HISTONE DEACETYLASE INHIBITORS WITH PROTEASOME INHIBITORS” (priority 2006, published 2009).

Tests used:
[1] = system: p21waf1,cip1 deficient cells as compared to the parental HCT-116 cells; details: p21waf1,cip1 deficient cells vs parental HCT-116 cells; cited from earlier work
[2] = system: acetylation of tubulin and induction of Hsp 70 in A2780 ovarian carcinoma cells; test: Acetylation of tubulin and induction of Hsp 70 (Western blot, HDAC 6 readout); assay type: cell-based, human; details: 24 h, 0-3000 nM tested
Method: Total cell lysates were prepared and analysed by SDS-PAGE. […] Hsp 70 protein was detected with an antibody from Stressgen (Cat. nr. SPA-810), followed by ECL detection. Appropriate dilutions of antibodies were incubated for either 1-2 h at room temperature or overnight at 4° C. In order to control for equal loading, blots were stripped and re-probed with mouse monoclonal anti-actin IgM (Ab-1, Oncogene Research Products). […] Protein-antibody complexes were then visualized by chemiluminescence (Pierce Chemical Co) or fluorescence (Odyssey) according to the manufacturer's instructions. The experiments were performed three times.

[3] = system: acetylation of histone H3 and H4 and induction of p21waf1,cip1 in A2780 ovarian carcinoma cells; test: Acetylation of cellular HDAC 1 substrates and induction of p21waf1,cip1 (Western blot); assay type: cell-based, human; details: 24 h, 0-3000 nM tested
Method: Total cell lysates were prepared and analysed by SDS-PAGE. Levels of acetylated H3 and H4 histones, total level of H3 proteins and levels p21^waf1, cip1 protein were detected using appropriate dilutions of rabbit polyclonal and mouse monoclonal antibodies, followed by enhanced chemoluminescence (ECL) detection. […] Antibodies were incubated for either 1-2 h at room temperature or overnight at 4° C. […] Protein-antibody complexes were then visualized by chemiluminescence (Pierce Chemical Co) or fluorescence (Odyssey) according to the manufacturer's instructions. The experiments were performed three times.

K-562 = details: K-562, chronic myeloid leukemia; 72 hr, MTS
Method: (§1) Tumor cells were grown as cell suspension in the corresponding appropriate culture medium at 37° C. in a humidified 5% CO2 incubator. Mycoplasma-free tumor cells were seeded in 96-well flat-bottom microtitration plates and incubated at 37° C. for 24 hr in culture medium containing 10% FCS. […] Cells were then incubated for an additional 72 hr.

RPMI 8226 = details: RPMI 8226, myeloma; 72 hr, MTS
Method: as §1

Raji = details: Burkitt's lymphoma, 72 hr, MTS
Method: as §1

OCI-AML2 = details: OCI-AML2, acute myeloid leukemia; 72 hr, MTS
Method: as §1

HL-60 = details: HL-60, acute promyelocytic leukemia; 72 hr, MTS
Method: as §1

U-937 = details: U-937, lymphoma; 72 hr, MTS
Method: as §1

KCL-22 = details: KCL-22, chronic myeloid leukemia; 72 hr, MTS
Method: as §1

SUP-B15 = details: SUP-B15, acute lymphoblastic leukemia; 72 hr, MTS
Method: as §1

EHEB = details: chronic B cell leukemia, 72 hr, MTS
Method: as §1

Jurkat clone E6-1 = details: Jurkat clone E6-1, acute lymphoblastic leukemia; 72 hr, MTS
Method: as §1

ARH-77 = details: ARH-77, myeloma; 72 hr, MTS
Method: as §1

Namalwa = details: Burkitt's lymphoma, 72 hr, MTS
Method: as §1

MOLT-4 = details: MOLT-4, acute lymphoblastic leukemia; 72 hr, MTS
Method: as §1

KG-1 = details: KG-1, acute myelogenous leukemia; 72 hr, MTS
Method: as §1

CCRF-CEM = details: acute lymphoblastic leukemia, 72 hr, MTS
Method: as §1

LAMA-84 = details: LAMA-84, chronic myeloid leukemia in blast crisis; 72 hr, MTS
Method: as §1

THP-1 = details: THP-1, acute monocytic leukemia; 72 hr, MTS
Method: as §1

Daudi = details: Burkitt's lymphoma, 72 hr, MTS
Method: as §1

BV-173 = details: BV-173, chronic B cell leukemia; 72 hr, MTS
Method: as §1

Ramos = details: Burkitt's lymphoma, 72 hr, MTS
Method: as §1

CC(/C=C/C(=O)NO)=C\[C@@H](C)C(=O)c1ccc(N(C)C)cc1 [trichostatin A]
increase in resistance to the HDAC inhibitor [1]: 6 fold

Cn1cc(CNCC2CCN(c3ncc(C(=O)NO)cn3)CC2)c2ccccc21 [JNJ 26481585]
concentration when start of induction of acetylation of tubulin and induction of Hsp 70 is observed [2]: 30 nM
concentration when induction of acetylation of histone H3 and H4 and induction of p21waf1,cip1 is observed [3]: 10 nM

O=C(CCCCCCC(=O)Nc1ccccc1)NO [SAHA, suberoylanilide hydroxamic acid]
concentration when start of induction of acetylation of tubulin and induction of Hsp 70 is observed [2]: 100 nM
concentration when induction of acetylation of histone H3 and H4 and induction of p21waf1,cip1 is observed [3]: 3000 nM

O=C(NO)c1cnc(N2CCN(S(=O)(=O)c3ccc4ccccc4c3)CC2)nc1 [R306465]
concentration when start of induction of acetylation of tubulin and induction of Hsp 70 is observed [2]: 1000 nM
mean IC40 (concentration required to reach 40% inhibition of cell proliferation) (K-562): 80.76 nM
mean IC40 (concentration required to reach 40% inhibition of cell proliferation) (RPMI 8226): 37.59 nM
mean IC40 (concentration required to reach 40% inhibition of cell proliferation) (Raji): 221.09 nM
mean IC40 (concentration required to reach 40% inhibition of cell proliferation) (OCI-AML2): 267.92 nM
mean IC40 (concentration required to reach 40% inhibition of cell proliferation) (HL-60): 86.76 nM
mean IC40 (concentration required to reach 40% inhibition of cell proliferation) (U-937): 154.68 nM
mean IC40 (concentration required to reach 40% inhibition of cell proliferation) (KCL-22): 89.88 nM
mean IC40 (concentration required to reach 40% inhibition of cell proliferation) (SUP-B15): 15.67 nM
mean IC40 (concentration required to reach 40% inhibition of cell proliferation) (EHEB): 486.62 nM
mean IC40 (concentration required to reach 40% inhibition of cell proliferation) (Jurkat clone E6-1): 56.19 nM
mean IC40 (concentration required to reach 40% inhibition of cell proliferation) (ARH-77): 207.27 nM
mean IC40 (concentration required to reach 40% inhibition of cell proliferation) (Namalwa): 49.25 nM
concentration when induction of acetylation of histone H3 and H4 and induction of p21waf1,cip1 is observed [3]: 100 nM
mean IC40 (concentration required to reach 40% inhibition of cell proliferation) (MOLT-4): 155.83 nM
mean IC40 (concentration required to reach 40% inhibition of cell proliferation) (KG-1): 170.59 nM
mean IC40 (concentration required to reach 40% inhibition of cell proliferation) (CCRF-CEM): 78.79 nM
mean IC40 (concentration required to reach 40% inhibition of cell proliferation) (LAMA-84): 165.89 nM
mean IC40 (concentration required to reach 40% inhibition of cell proliferation) (THP-1): 446.29 nM
mean IC40 (concentration required to reach 40% inhibition of cell proliferation) (Daudi): 454.11 nM
mean IC40 (concentration required to reach 40% inhibition of cell proliferation) (BV-173): 26.33 nM
mean IC40 (concentration required to reach 40% inhibition of cell proliferation) (Ramos): 66.08 nM
